# Results: PubChem BioAssay AID2060498 (Molecular Pharmacology Branch, DTP, NCI, 2025)
# Where “and” joins values, the source holds several entries; their conditions need not be identical. Equal values may be shown once.
# System: 171881-019-R-J1-PDC tumor spheroids, viability
# Experiment: Anticancer human tumor 171881-019-R-J1-PDC patient-derived invasive breast carcinoma cell line growth inhibition [GQUAD]
# Conditions: spheroids with HUVEC and MSC; for viability, T/C: stronger effect = lower value
# Outline: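 Multi-cell-type spheroids of tumor cells with HUVEC and mesenchymal stem cells, treated with drug combinations. Concentrations descend in half-log steps from near clinical Cmax, or from 10 microM where Cmax is unknown; viability read-out.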
# 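Also: spheroids exposed to compounds for 7 days.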
# 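For viability, T/C in this document: 100% = DMSO vehicle control viability.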
compound,measurement,setting,value
Nc1ccn(C2OC(CO)C(O)C2(F)F)c(=O)n1 (centres undefined) + CN(C)c1ccc(Nc2c3ccc(NC(=O)CCN4CCCC4)cc3nc3cc(NC(=O)CCN4CCCC4)ccc23)cc1,IC50,"curve of first compound, second compound 0.0316 µM",< 31.6 nM
same,IC50,"curve of first compound, second compound 0.1 µM",< 31.6 nM
same,IC50,"curve of first compound, second compound 0.316 µM",< 31.6 nM
same,IC50,"curve of first compound, second compound 1 µM",< 31.6 nM
same,IC50,"curve of first compound, second compound 3.16 µM",< 31.6 nM
same,IC50,"curve of first compound, second compound 10 µM",< 31.6 nM
same,"viability, T/C","second compound 0.0316 µM, first compound 0.0316 µM",35.4%
same,"viability, T/C","second compound 0.0316 µM, first compound 0.1 µM",35.6%
same,"viability, T/C","second compound 0.0316 µM, first compound 0.316 µM",44.6%
same,"viability, T/C","second compound 0.0316 µM, first compound 1 µM",51%
same,"viability, T/C","second compound 0.0316 µM, first compound 3.16 µM",45.9%
same,"viability, T/C","second compound 0.0316 µM, first compound 10 µM",47.7%
same,"viability, T/C","second compound 0.1 µM, first compound 0.0316 µM",33.7%
same,"viability, T/C","second compound 0.1 µM, first compound 0.1 µM",38%
same,"viability, T/C","second compound 0.1 µM, first compound 0.316 µM",46.6%
same,"viability, T/C","second compound 0.1 µM, first compound 1 µM",53%
same,"viability, T/C","second compound 0.1 µM, first compound 3.16 µM",45.6%
same,"viability, T/C","second compound 0.1 µM, first compound 10 µM",46%
same,"viability, T/C","second compound 0.316 µM, first compound 0.0316 µM",33%
same,"viability, T/C","second compound 0.316 µM, first compound 0.1 µM",36%
same,"viability, T/C","second compound 0.316 µM, first compound 0.316 µM",39.9%
same,"viability, T/C","second compound 0.316 µM, first compound 1 µM",38.5%
same,"viability, T/C","second compound 0.316 µM, first compound 3.16 µM",47.2%
same,"viability, T/C","second compound 0.316 µM, first compound 10 µM",38.4%
same,"viability, T/C","second compound 1 µM, first compound 0.0316 µM",12.5%
same,"viability, T/C","second compound 1 µM, first compound 0.1 µM",8.63%
same,"viability, T/C","second compound 1 µM, first compound 0.316 µM",13.7%
same,"viability, T/C","second compound 1 µM, first compound 1 µM",11.8%
same,"viability, T/C","second compound 1 µM, first compound 3.16 µM",15%
same,"viability, T/C","second compound 1 µM, first compound 10 µM",16.6%
same,"viability, T/C","second compound 3.16 µM, first compound 0.0316 µM",2.29%
same,"viability, T/C","second compound 3.16 µM, first compound 0.1 µM",1.62%
same,"viability, T/C","second compound 3.16 µM, first compound 0.316 µM",2.47%
same,"viability, T/C","second compound 3.16 µM, first compound 1 µM",1.2%
same,"viability, T/C","second compound 3.16 µM, first compound 3.16 µM",2.41%
same,"viability, T/C","second compound 3.16 µM, first compound 10 µM",2.49%
same,"viability, T/C","second compound 10 µM, first compound 0.0316 µM",0.27%
same,"viability, T/C","second compound 10 µM, first compound 0.1 µM",0.9%
same,"viability, T/C","second compound 10 µM, first compound 0.316 µM",0.82%
same,"viability, T/C","second compound 10 µM, first compound 1 µM",0.47%
same,"viability, T/C","second compound 10 µM, first compound 3.16 µM",1.36%
same,"viability, T/C","second compound 10 µM, first compound 10 µM",0.37%
CCCS(=O)(=O)Nc1ccc(F)c(C(=O)c2c[nH]c3ncc(-c4ccc(Cl)cc4)cc23)c1F,"viability, T/C",compound 0.0316 µM,93.6% and 96.9% and 102%
same,"viability, T/C",compound 0.1 µM,104% and 92.1% and 101%
same,"viability, T/C",compound 0.316 µM,105% and 114% and 98.3%
same,"viability, T/C",compound 1 µM,113% and 97.5% and 123%
same,"viability, T/C",compound 3.16 µM,96.5% and 102% and 108%
same,"viability, T/C",compound 10 µM,51% and 50.6% and 74.3%
same,IC50,curve of compound,> 10000 nM
